The values that follow come from patent US20260200928A1, “THERAPEUTIC COMPOUNDS” (Sanofi, priority 2022, published 2026).

One may read the IC50 as the concentration at which inhibition is half-maximal. A higher IC50 goes with weaker potency in that assay.

Counter-ions that a name gives are not always drawn.

In this assay the target is T1, human IL-17A (Homo sapiens, UniProt Q16552).
T1 construct: purchased R&D Systems 7955-IL/CF
T1 sequence (Q16552 24-155): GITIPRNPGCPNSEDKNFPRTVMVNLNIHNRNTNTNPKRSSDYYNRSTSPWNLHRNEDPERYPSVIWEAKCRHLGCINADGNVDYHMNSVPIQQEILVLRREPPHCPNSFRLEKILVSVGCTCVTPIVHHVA
In words: IL-17A AlphaLISA competition assay (block of IL-17A binding to its receptor IL-17RA). The conditions noted are these: mean IC50 (n≥2), block of IL-17A binding to IL-17RA. The essentials: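 Bead-based AlphaLISA competition in PBS with 0.05% Tween-20 and 0.1% BSA: compound first meets human IL-17A (7.5 nM stock) for 30 min, then IL-17RA/Fc (5 nM stock) for 90 min, all at room temperature, before acceptor/donor bead capture. IC50 fitted 4-parameter, DMSO and 4 μM reference inhibitor as controls; at least duplicate.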
Background: Bead proximity is the source of the signal in Alpha formats.

With `O=C(N[C@H](C(=O)Nc1cc(CN2C[C@@H](C(F)(F)F)NC2=O)ccn1)C1CCC(F)(F)CC1)c1ccnn1C1CC1` [Example 14, 1-cyclopropyl-N-((S)-1-(4,4-difluorocyclohexyl)-2-oxo-2-((4-(((S)-2-oxo-4-(trifluoromethyl)imidazolidin-1-yl)methyl)pyridin-2-yl)amino)ethyl)-1H-pyrazole-5-carboxamide], the half-inhibitory concentration (IC50) was found to be 0.333 µM. As for `Cn1nccc1C(=O)N[C@H](C(=O)Nc1cc(CN2C[C@@H](C(F)(F)F)NC2=O)ccn1)C(C1CC1)C1CC1` [Example 15, N-((S)-1,1-dicyclopropyl-3-oxo-3-((4-(((S)-2-oxo-4-(trifluoromethyl)imidazolidin-1-yl)methyl)pyridin-2-yl)amino)propan-2-yl)-1-methyl-1H-pyrazole-5-carboxamide], the figure is 0.201 µM; as for `O=C(N[C@H](C(=O)Nc1cc(CN2C[C@@H](C(F)(F)F)NC2=O)ccn1)C(C1CC1)C1CC1)c1nonc1C1CC1` [Example 16, 4-cyclopropyl-N-((S)-1,1-dicyclopropyl-3-oxo-3-((4-(((S)-2-oxo-4-(trifluoromethyl)imidazolidin-1-yl)methyl)pyridin-2-yl)amino)propan-2-yl)-1,2,5-oxadiazole-3-carboxamide], 0.157 µM. As for `CC(C)n1nccc1C(=O)N[C@H](C(=O)Nc1cc(CN2C[C@@H](C(F)(F)F)NC2=O)ccn1)C(C1CC1)C1CC1` [Example 17, N-((S)-1,1-dicyclopropyl-3-oxo-3-((4-(((S)-2-oxo-4-(trifluoromethyl)imidazolidin-1-yl)methyl)pyridin-2-yl)amino)propan-2-yl)-1-isopropyl-1H-pyrazole-5-carboxamide], the figure is 0.092 µM. Regarding `Cc1nonc1C(=O)N[C@H](C(=O)Nc1cc(CN2C[C@@H](C(F)(F)F)NC2=O)ccn1)C(C1CC1)C1CC1` [Example 18, N-((S)-1,1-dicyclopropyl-3-oxo-3-((4-(((S)-2-oxo-4-(trifluoromethyl)imidazolidin-1-yl)methyl)pyridin-2-yl)amino)propan-2-yl)-4-methyl-1,2,5-oxadiazole-3-carboxamide], the IC50 was 0.448 µM. As for `CC(C)(C)OC(=O)NCC1(c2nocc2C(=O)N[C@H](C(=O)Nc2cc(CN3C[C@@H](C(F)(F)F)NC3=O)ccn2)C2CCC(F)(F)CC2)CC1` [Example 19, Tert-butyl ((1-(4-(((S)-1-(4,4-difluorocyclohexyl)-2-oxo-2-((4-(((S)-2-oxo-4-(trifluoromethyl)imidazolidin-1-yl)methyl)pyridin-2-yl)amino)ethyl)-carbamoyl)isoxazol-3-yl)cyclopropyl)methyl)carbamate], the figure is 0.843 µM; as for `O=C(N[C@H](C(=O)Nc1cc(CN2C[C@@H](C(F)(F)F)NC2=O)ccn1)C1CCC(F)(F)CC1)c1conc1C1CC1` [Example 20, 3-cyclopropyl-N-((S)-1-(4,4-difluorocyclohexyl)-2-oxo-2-((4-(((S)-2-oxo-4-(trifluoromethyl)-imidazolidin-1-yl)methyl)-pyridin-2-yl)amino)ethyl)-isoxazole-4-carboxamide], 0.183 µM. Take `CC(C)c1nocc1C(=O)N[C@H](C(=O)Nc1cc(CN2C[C@@H](C(F)(F)F)NC2=O)ccn1)C1CCC(F)(F)CC1` [Example 21, N-((S)-1-(4,4-difluorocyclohexyl)-2-oxo-2-((4-(((S)-2-oxo-4-(trifluoro-methyl)imidazolidin-1-yl)methyl)pyridin-2-yl)amino)ethyl)-3-isopropyl-isoxazole-4-carboxamide]: the 50% inhibitory concentration (IC50) is 0.138 µM. Compound `NCC1(c2nocc2C(=O)N[C@H](C(=O)Nc2cc(CN3C[C@@H](C(F)(F)F)NC3=O)ccn2)C2CCC(F)(F)CC2)CC1` [Example 22, 3-(1-(Aminomethyl)cyclopropyl)-N—((S)-1-(4,4-difluorocyclohexyl)-2-oxo-2-((4-(((S)-2-oxo-4-(trifluoromethyl)imidazolidin-1-yl)methyl)pyridin-2-yl)amino)ethyl)isoxazole-4-carboxamide HCl salt] came in with an IC50 of 9.23 µM. The same measure for `CN1C(=O)N(Cc2ccnc(NC(=O)[C@@H](NC(=O)OC(C)(C)C)[C@H]3CC[C@H](C)CC3)c2)CC12CCC2` [Example 23, Tert-butyl ((S)-2-((4-((5-methyl-6-oxo-5,7-diazaspiro[3.4]octan-7-yl)methyl)pyridin-2-yl)amino)-1-((1r,4S)-4-methylcyclohexyl)-2-oxoethyl)carbamate]: 6.95 µM; for `CC1(C)CN(Cc2ccnc(NC(=O)[C@@H](NC(=O)OC(C)(C)C)[C@H]3CC[C@H](C)CC3)c2)C(=O)N1` [Example 24, Tert-butyl ((S)-2-((4-((4,4-dimethyl-2-oxoimidazolidin-1-yl)methyl)pyridin-2-yl)amino)-1-((1r,4S)-4-methylcyclohexyl)-2-oxoethyl)carbamate]: 1.05 µM; for `CC1(C)CN(Cc2ccnc(NC(=O)[C@@H](NC(=O)c3nonc3C3CC3)[C@H]3CC[C@H](C)CC3)c2)C(=O)N1` [Example 25, 4-Cyclopropyl-N—((S)-2-((4-((4,4-dimethyl-2-oxoimidazolidin-1-yl)methyl)pyridin-2-yl)amino)-1-((1r,4S)-4-methylcyclohexyl)-2-oxoethyl)-1,2,5-oxadiazole-3-carboxamide]: 0.105 µM. As for `CC(C)(C)OC(=O)N[C@H](C(=O)Nc1cc(COC(=O)NCC(F)(F)F)ccn1)[C@H]1CC[C@H](C)CC1` [Example 26, Tert-butyl ((S)-1-((1r,4S)-4-methylcyclohexyl)-2-oxo-2-((4-((((2,2,2-trifluoroethyl)carbamoyl)oxy)methyl)pyridin-2-yl)amino)ethyl)carbamate], the figure is 10.4 µM. The compound `CC(C)(C)OC(=O)N[C@H](C(=O)Nc1cc(CN2C(=O)NC(C)(C)C2=O)ccn1)C1CCC(F)(F)CC1` [Example 27, Tert-butyl (S)-(1-(4,4-difluorocyclohexyl)-2-((4-((4,4-dimethyl-2,5-dioxoimidazolidin-1-yl)methyl)pyridin-2-yl)amino)-2-oxoethyl)carbamate] showed an IC50 of 14.9 µM. The same measure for `CC(C)(C)OC(=O)N[C@H](C(=O)Nc1cc(CN2C(=O)CNC2=O)ccn1)C1CCC(F)(F)CC1` [Example 28, Tert-butyl (S)-(1-(4,4-difluorocyclohexyl)-2-((4-((2,5-dioxoimidazolidin-1-yl)methyl)pyridin-2-yl)amino)-2-oxoethyl)carbamate]: 8.4 µM. As to `C[C@@H]1CNC(=O)N1Cc1ccnc(NC(=O)[C@@H](NC(=O)OC(C)(C)C)[C@H]2CC[C@H](C)CC2)c1` [Example 29, Tert-butyl ((S)-2-((4-(((R)-5-methyl-2-oxoimidazolidin-1-yl)methyl)pyridin-2-yl)amino)-1-((1r,4S)-4-methylcyclohexyl)-2-oxoethyl)carbamate], the IC50 was determined as 0.428 µM.

In the case of `C[C@@H]1CN(Cc2ccnc(NC(=O)[C@@H](NC(=O)OC(C)(C)C)[C@H]3CC[C@H](C)CC3)c2)C(=O)N1` [Example 30], the IC50 turned out to be 0.479 µM. On to `Cn1nccc1C(=O)N[C@H](C(=O)Nc1cc(CC(=O)NCCC(F)(F)F)ccn1)C(C1CC1)C1CC1` [Example 31, (S)—N-(1,1-dicyclopropyl-3-oxo-3-((4-(2-oxo-2-((3,3,3-trifluoro-propyl)amino)ethyl)pyridin-2-yl)amino)propan-2-yl)-1-methyl-1H-pyrazole-5-carboxamide], for which the IC50 was found to be 5.06 µM. As for `Cn1nccc1C(=O)N[C@H](C(=O)Nc1cc(CNC(=O)CCC(F)(F)F)ccn1)C(C1CC1)C1CC1` [Example 32, (S)—N-(1,1-dicyclopropyl-3-oxo-3-((4-((4,4,4-trifluorobutanamido)-methyl)pyridin-2-yl)amino)propan-2-yl)-1-methyl-1H-pyrazole-5-carboxamide], the figure is 5.6 µM; as for `C[C@@H]1CN(Cc2ccnc(NC(=O)[C@@H](NC(=O)c3ccnn3C)C(C3CC3)C3CC3)c2)C(=O)N1` [Example 33, N—((S)-1,1-dicyclopropyl-3-((4-(((R)-4-methyl-2-oxoimidazolidin-1-yl)methyl)pyridin-2-yl)amino)-3-oxopropan-2-yl)-1-methyl-1H-pyrazole-5-carboxamide], 1.01 µM; as for `C[C@@H]1CN(Cc2ccnc(NC(=O)[C@@H](NC(=O)c3ccnn3C3CC3)C(C3CC3)C3CC3)c2)C(=O)N1` [Example 34, 1-cyclopropyl-N—((S)-1,1-dicyclopropyl-3-((4-(((R)-4-methyl-2-oxoimidazolidin-1-yl)methyl)pyridin-2-yl)amino)-3-oxopropan-2-yl)-1H-pyrazole-5-carboxamide], 1.47 µM.

`CC(C)n1nccc1C(=O)NC(C(=O)Nc1cc(Cc2cccc(=O)n2C)ccn1)C1CCC(F)(F)CC1` (stereo not drawn) [Example 35, N-(1-(4,4-difluorocyclohexyl)-2-((4-((1-methyl-6-oxo-1,6-dihydropyridin-2-yl)methyl)pyridin-2-yl)amino)-2-oxoethyl)-1-isopropyl-1H-pyrazole-5-carboxamide] had an IC50 of 23.5 µM.

With `CCn1nccc1C(=O)NC(C(=O)Nc1cc(Cc2cccc(=O)n2C)ccn1)C1CCC(F)(F)CC1` (stereo not drawn) [Example 36, N-(1-(4,4-difluorocyclohexyl)-2-((4-((1-methyl-6-oxo-1,6-dihydro-pyridin-2-yl)methyl)pyridin-2-yl)amino)-2-oxoethyl)-1-ethyl-1H-pyrazole-5-carboxamide], the IC50 was 12 µM.

`Cn1nccc1C(=O)NC(C(=O)Nc1cc(Cc2cccc(=O)n2C)ccn1)C1CCC(F)(F)CC1` (stereo not drawn) [Example 37, N-(1-(4,4-difluorocyclohexyl)-2-((4-((1-methyl-6-oxo-1,6-dihydropyridin-2-yl)methyl)pyridin-2-yl)amino)-2-oxoethyl)-1-methyl-1H-pyrazole-5-carboxamide] displayed an IC50 of 25.4 µM.
